Measurements taken from PubChem BioAssay (NCI).
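Method: 48-hour compound exposure of cells in 96-well plates, five concentrations, linear interpolation of endpoints. The concentration for full growth arrest is given as TGI.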

How the values were obtained:
Experiment in all cases: NCI anticancer screen, dose series, 48 h
UACC-62 melanoma = system: UACC-62 melanoma
SK-MEL-5 melanoma = system: SK-MEL-5 melanoma
HOP-92 NSCLC = system: HOP-92 NSCLC
SK-MEL-28 melanoma = system: SK-MEL-28 melanoma
A549 NSCLC = system: A549 NSCLC
TK-10 renal = system: TK-10 renal
UO-31 renal = system: UO-31 renal
ACHN renal = system: ACHN renal
HOP-62 NSCLC = system: HOP-62 NSCLC
NCI-H460 lung = system: NCI-H460 lung
K-562 leukemia = system: K-562 leukemia
SNB-19 CNS = system: SNB-19 CNS
CCRF-CEM leukemia = system: CCRF-CEM leukemia
BT-549 breast = system: BT-549 breast
KM12 colon = system: KM12 colon
SK-MEL-2 melanoma = system: SK-MEL-2 melanoma
SF-268 CNS = system: SF-268 CNS
U251 CNS = system: U251 CNS
HT29 colon = system: HT29 colon
M14 melanoma = system: M14 melanoma
SNB-75 CNS = system: SNB-75 CNS
OVCAR-8 ovarian = system: OVCAR-8 ovarian
OVCAR-3 ovarian = system: OVCAR-3 ovarian
DU-145 prostate = system: DU-145 prostate
IGROV1 ovarian = system: IGROV1 ovarian
HCT-116 colon = system: HCT-116 colon
NCI/ADR-RES ovarian = system: NCI/ADR-RES ovarian
A498 renal = system: A498 renal
RXF 393 renal = system: RXF 393 renal
RPMI-8226 leukemia = system: RPMI-8226 leukemia
COLO 205 colon = system: COLO 205 colon
SF-539 CNS = system: SF-539 CNS
HCT-15 colon = system: HCT-15 colon
SK-OV-3 ovarian = system: SK-OV-3 ovarian
UACC-257 melanoma = system: UACC-257 melanoma
MDA-N = system: MDA-N
OVCAR-4 ovarian = system: OVCAR-4 ovarian
MCF7 breast = system: MCF7 breast
SF-295 CNS = system: SF-295 CNS
SW-620 colon = system: SW-620 colon
MOLT-4 leukemia = system: MOLT-4 leukemia
NCI-H23 lung = system: NCI-H23 lung
786-0 renal = system: 786-0 renal
HS 578T breast = system: HS 578T breast
EKVX NSCLC = system: EKVX NSCLC
OVCAR-5 ovarian = system: OVCAR-5 ovarian
SN12C renal = system: SN12C renal
MDA-MB-231 breast = system: MDA-MB-231 breast
T-47D breast = system: T-47D breast
NCI-H226 lung = system: NCI-H226 lung
MDA-MB-435 = system: MDA-MB-435
HCC-2998 colon = system: HCC-2998 colon

**Q.** How did the TGI (UACC-62 melanoma) turn out when `CC(=O)Nc1ccc(C(=O)NN2C(=O)CSC2c2ccccc2)cc1` (configuration not stated) was run?
**A.** Its TGI is over 100 µM.

**Q.** What about the TGI (SK-MEL-5 melanoma) of the same molecule?
**A.** Its TGI is over 100 µM.

**Q.** What about the TGI (HOP-92 NSCLC) of the same molecule?
**A.** The TGI was over 100 µM.

**Q.** What about the TGI (SK-MEL-28 melanoma) of the same molecule?
**A.** The TGI was over 100 µM.

**Q.** What about the TGI (A549 NSCLC) of the same molecule?
**A.** Its TGI is over 100 µM.

**Q.** What about the TGI (TK-10 renal) of the same molecule?
**A.** Its TGI is over 100 µM.

**Q.** What about the TGI (UO-31 renal) of the same molecule?
**A.** The TGI was over 100 µM.

**Q.** What about the TGI (ACHN renal) of the same molecule?
**A.** The TGI was over 100 µM.

**Q.** What about the TGI (HOP-62 NSCLC) of the same molecule?
**A.** Its TGI is over 100 µM.

**Q.** And the TGI (NCI-H460 lung)?
**A.** The TGI was over 100 µM.

**Q.** What about the TGI (K-562 leukemia) of the same molecule?
**A.** Its TGI is over 100 µM.

**Q.** And the TGI (SNB-19 CNS)?
**A.** The TGI was over 100 µM.

**Q.** What about the TGI (CCRF-CEM leukemia) of the same molecule?
**A.** Its TGI is over 100 µM.

**Q.** What about the TGI (BT-549 breast) of the same molecule?
**A.** The TGI was 83 µM.

**Q.** And the TGI (KM12 colon)?
**A.** Its TGI is over 100 µM.

**Q.** And the TGI (SK-MEL-2 melanoma)?
**A.** The TGI was over 100 µM.

**Q.** And the TGI (SF-268 CNS)?
**A.** The TGI was over 100 µM.

**Q.** What about the TGI (U251 CNS) of the same molecule?
**A.** Its TGI is over 100 µM.

**Q.** And the TGI (HT29 colon)?
**A.** Its TGI is over 100 µM.

**Q.** What about the TGI (M14 melanoma) of the same molecule?
**A.** The TGI was over 100 µM.

**Q.** What about the TGI (SNB-75 CNS) of the same molecule?
**A.** Its TGI is over 100 µM.

**Q.** And the TGI (OVCAR-8 ovarian)?
**A.** Its TGI is over 100 µM.

**Q.** What about the TGI (OVCAR-3 ovarian) of the same molecule?
**A.** Its TGI is over 100 µM.

**Q.** And the TGI (DU-145 prostate)?
**A.** Its TGI is over 100 µM.

**Q.** And the TGI (IGROV1 ovarian)?
**A.** The TGI was over 100 µM.

**Q.** What about the TGI (HCT-116 colon) of the same molecule?
**A.** The TGI was over 100 µM.

**Q.** And the TGI (NCI/ADR-RES ovarian)?
**A.** Its TGI is over 100 µM.

**Q.** And the TGI (A498 renal)?
**A.** The TGI was over 100 µM.

**Q.** And the TGI (RXF 393 renal)?
**A.** Its TGI is over 100 µM.

**Q.** What about the TGI (RPMI-8226 leukemia) of the same molecule?
**A.** Its TGI is over 100 µM.

**Q.** What about the TGI (COLO 205 colon) of the same molecule?
**A.** Its TGI is over 100 µM.

**Q.** What about the TGI (SF-539 CNS) of the same molecule?
**A.** Its TGI is over 100 µM.

**Q.** And the TGI (HCT-15 colon)?
**A.** Its TGI is over 100 µM.

**Q.** And the TGI (SK-OV-3 ovarian)?
**A.** The TGI was over 100 µM.

**Q.** What about the TGI (UACC-257 melanoma) of the same molecule?
**A.** Its TGI is over 100 µM.

**Q.** What about the TGI (MDA-N) of the same molecule?
**A.** The TGI was over 100 µM.

**Q.** And the TGI (OVCAR-4 ovarian)?
**A.** The TGI was over 100 µM.

**Q.** And the TGI (MCF7 breast)?
**A.** The TGI was over 100 µM.

**Q.** And the TGI (SF-295 CNS)?
**A.** The TGI was over 100 µM.

**Q.** And the TGI (SW-620 colon)?
**A.** The TGI was over 100 µM.

**Q.** And the TGI (MOLT-4 leukemia)?
**A.** Its TGI is over 100 µM.

**Q.** And the TGI (NCI-H23 lung)?
**A.** Its TGI is over 100 µM.

**Q.** What about the TGI (786-0 renal) of the same molecule?
**A.** The TGI was over 100 µM.

**Q.** What about the TGI (HS 578T breast) of the same molecule?
**A.** The TGI was over 100 µM.

**Q.** What about the TGI (EKVX NSCLC) of the same molecule?
**A.** Its TGI is over 100 µM.

**Q.** And the TGI (OVCAR-5 ovarian)?
**A.** Its TGI is over 100 µM.

**Q.** And the TGI (SN12C renal)?
**A.** Its TGI is over 100 µM.

**Q.** And the TGI (MDA-MB-231 breast)?
**A.** The TGI was over 100 µM.

**Q.** What about the TGI (T-47D breast) of the same molecule?
**A.** Its TGI is over 100 µM.

**Q.** What about the TGI (NCI-H226 lung) of the same molecule?
**A.** Its TGI is over 100 µM.

**Q.** What about the TGI (MDA-MB-435) of the same molecule?
**A.** Its TGI is over 100 µM.

**Q.** And the TGI (HCC-2998 colon)?
**A.** Its TGI is over 100 µM.
